Laboratory results: patent US7998988B2, “Biphenyl compounds useful in the treatment or prevention of cardiovascular disorders” (Bayer Schering Pharma Aktiengellschaft, priority 2005, dated 2011)

Assays:
saphenous artery rings = experiment: Vasorelaxant effect in vitro (phenylephrine-contracted artery rings); format: cell-based; settings: rabbit saphenous artery rings, contraction induced by phenylephrine
Procedure: Rabbits are anesthetized and sacrificed by intravenous injection of thiopental sodium (about 50 mg/kg) and exsanguinated. The saphenous artery is removed and divided into rings 3 mm wide. The rings are mounted singly on in each case a pair of triangular hooks open at the end and made of 0.3 mm-thick special wire (Remanium®). Each ring is placed under an initial tension in 5 ml organ baths with Krebs-Henseleit solution which is at 37° C., is gassed with 95% 02/5% CO2 and has the following composition: NaCl 119 mM; KCl 4.8 mM; CaCl2×2H2O 1 mM; MgSO4×7 H2O 1.4 mM; KH2PO4 1.2 mM; NaHCO3 25 mM; glucose 10 mM; bovine serum albumin 0.001%. The force of contraction is detected with Statham UC2 cells, amplified and digitized via A/D converters (DAS-1802 HC, Keithley Instruments, Munich) and recorded in parallel on chart recorders. Contractions are induced by addition of phenylephrine.
After several (generally 4) control cycles, the substance to be investigated is added in each further run in increasing dosage, and the height of the contraction achieved under the influence of the test substance is compared with the height of the contraction reached in the last preceding run. The concentration necessary to reduce the contraction reached in the preceding control by 50% is calculated from this (IC50). The standard application volume is 5 μl. The proportion of DMSO in the bath solution corresponds to 0.1%.

[1] = molecular target: T1, heme-free recombinant soluble guanylate cyclase (sGC) (Rattus norvegicus, UniProt P20595); experiment: Stimulation of recombinant soluble guanylate cyclase (sGC) in vitro, heme-free; format: biochemical; settings: heme-free sGC (Tween 20)
T1 construct: made in house
T1 sequence (P20595 1-619): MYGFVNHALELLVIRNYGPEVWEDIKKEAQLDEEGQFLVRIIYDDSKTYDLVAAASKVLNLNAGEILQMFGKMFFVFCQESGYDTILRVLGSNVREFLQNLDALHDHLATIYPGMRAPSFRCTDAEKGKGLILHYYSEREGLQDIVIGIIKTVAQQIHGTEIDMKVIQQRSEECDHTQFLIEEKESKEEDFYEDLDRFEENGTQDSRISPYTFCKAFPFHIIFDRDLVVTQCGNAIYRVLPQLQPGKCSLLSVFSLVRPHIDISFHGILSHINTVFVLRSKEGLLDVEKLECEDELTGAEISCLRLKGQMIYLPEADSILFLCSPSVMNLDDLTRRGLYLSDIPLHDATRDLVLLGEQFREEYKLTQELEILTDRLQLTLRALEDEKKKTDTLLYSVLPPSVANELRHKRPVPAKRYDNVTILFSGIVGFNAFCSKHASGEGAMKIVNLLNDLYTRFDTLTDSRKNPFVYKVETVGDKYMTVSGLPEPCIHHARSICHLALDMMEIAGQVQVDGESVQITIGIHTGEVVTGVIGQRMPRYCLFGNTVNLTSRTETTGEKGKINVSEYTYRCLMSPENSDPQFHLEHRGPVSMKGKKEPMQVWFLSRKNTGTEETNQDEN
T1 sequence (P19686 1-690 partner): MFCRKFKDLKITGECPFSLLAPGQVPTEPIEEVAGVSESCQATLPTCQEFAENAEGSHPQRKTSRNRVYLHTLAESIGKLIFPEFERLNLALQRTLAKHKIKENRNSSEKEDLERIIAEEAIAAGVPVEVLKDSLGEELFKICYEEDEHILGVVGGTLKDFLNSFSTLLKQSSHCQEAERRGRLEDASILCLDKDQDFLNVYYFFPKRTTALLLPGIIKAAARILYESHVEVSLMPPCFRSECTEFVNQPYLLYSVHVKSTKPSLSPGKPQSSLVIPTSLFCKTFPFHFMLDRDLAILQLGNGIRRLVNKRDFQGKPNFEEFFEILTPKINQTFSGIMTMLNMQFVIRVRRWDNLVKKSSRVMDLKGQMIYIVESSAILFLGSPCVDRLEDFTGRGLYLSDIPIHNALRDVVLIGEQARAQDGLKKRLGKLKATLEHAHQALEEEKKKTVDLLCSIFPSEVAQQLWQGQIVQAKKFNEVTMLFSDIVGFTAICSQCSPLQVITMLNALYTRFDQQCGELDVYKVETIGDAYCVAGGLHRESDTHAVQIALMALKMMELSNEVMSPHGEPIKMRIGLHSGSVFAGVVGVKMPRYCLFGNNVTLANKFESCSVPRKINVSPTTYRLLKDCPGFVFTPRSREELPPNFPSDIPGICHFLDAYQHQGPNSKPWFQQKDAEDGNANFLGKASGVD
Procedure: Investigations on the stimulation of recombinant soluble guanylate cyclase (sGC) by the compounds according to the invention with and without sodium nitroprusside, and with and without the heme-dependent sGC inhibitor 1H-1,2,4-oxadiazole-(4,3a)-quinoxalin-1-one (ODQ) are carried out by the method described in detail in the following reference: M. Hoenicka, E. M. Becker, H. Apeler, T. Sirichoke, H. Schroeder, R. Gerzer and J.-P. Stasch, “Purified soluble guanylyl cyclase expressed in a baculovirus/Sf9 system: Stimulation by YC-1, nitric oxide, and […]”, J. Mol. Med. 77 (1999), 14-23. The heme-free guanylate cyclase is obtained by adding Tween 20 to the sample buffer (0.5% in the final concentration).
(§1) The activation of sGC by a test substance is reported as n-fold stimulation of the basal activity.

[2] = molecular target: T2, heme-containing recombinant soluble guanylate cyclase (sGC) (Rattus norvegicus, UniProt P20595); experiment: Stimulation of recombinant soluble guanylate cyclase (sGC) in vitro, heme-containing; format: biochemical
T2 construct: made in house
T2 sequence (P20595 1-619): T1 sequence (P20595 1-619)
T2 sequence (P19686 1-690 partner): T1 sequence (P19686 1-690 partner)
Source text: Hoenicka, E. M. Becker, H. Apeler, T. Sirichoke, H. Schroeder, R. Gerzer and J.-P. Stasch, “Purified soluble guanylyl cyclase expressed in a baculovirus/Sf9 system: Stimulation by YC-1, nitric oxide, and carbon oxide”, J. Mol. Med. 77 (1999), 14-23. The heme-free guanylate cyclase is obtained by adding Tween 20 to the sample buffer (0.5% in the final concentration).
as §1

IC50 (saphenous artery rings): 146 nM
Stimulation (n-fold) of heme-free sGC, Basal ([1]; 0.001 μM test substance): 3.7 n-fold
Stimulation (n-fold) of heme-free sGC, Basal ([1]; 0.01 μM test substance): 24.0 n-fold
Stimulation (n-fold) of heme-free sGC, Basal ([1]; 0.1 μM test substance): 98.1 n-fold
Stimulation (n-fold) of heme-free sGC, Basal ([1]; 1 μM test substance): 132.6 n-fold
Stimulation (n-fold) of heme-free sGC, Basal ([1]; 10 μM test substance): 137.9 n-fold
Stimulation (n-fold) of sGC, +0.01 μM DEA/NO ([2]; 0.001 μM test substance): 10.6 n-fold
Stimulation (n-fold) of sGC, +0.01 μM DEA/NO ([2]; 0.01 μM test substance): 13.0 n-fold
Stimulation (n-fold) of sGC, +0.01 μM DEA/NO ([2]; 0.1 μM test substance): 25.5 n-fold
Stimulation (n-fold) of sGC, +0.01 μM DEA/NO ([2]; 1 μM test substance): 35.4 n-fold
Stimulation (n-fold) of sGC, +0.01 μM DEA/NO ([2]; 10 μM test substance): 42.5 n-fold
Stimulation (n-fold) of sGC, +0.1 μM DEA/NO ([2]; 0.001 μM test substance): 50.3 n-fold
Stimulation (n-fold) of sGC, +0.1 μM DEA/NO ([2]; 0.01 μM test substance): 53.4 n-fold
Stimulation (n-fold) of sGC, +0.1 μM DEA/NO ([2]; 0.1 μM test substance): 66.5 n-fold
Stimulation (n-fold) of sGC, +0.1 μM DEA/NO ([2]; 1 μM test substance): 75.1 n-fold
Stimulation (n-fold) of sGC, +0.1 μM DEA/NO ([2]; 10 μM test substance): 81.5 n-fold
Stimulation (n-fold) of sGC, +10 μM ODQ ([2]; 0.01 μM test substance): 12.7 n-fold
Stimulation (n-fold) of sGC, +10 μM ODQ ([2]; 0.1 μM test substance): 66.3 n-fold
Stimulation (n-fold) of sGC, +10 μM ODQ ([2]; 1 μM test substance): 107.4 n-fold
Stimulation (n-fold) of sGC, +10 μM ODQ ([2]; 10 μM test substance): 105.5 n-fold
Stimulation (n-fold) of sGC, Basal ([2]; 0.001 μM test substance): 1.4 n-fold
Stimulation (n-fold) of sGC, Basal ([2]; 0.01 μM test substance): 3.1 n-fold
Stimulation (n-fold) of sGC, Basal ([2]; 0.1 μM test substance): 15.5 n-fold
Stimulation (n-fold) of sGC, Basal ([2]; 1 μM test substance): 25.4 n-fold
Stimulation (n-fold) of sGC, Basal ([2]; 10 μM test substance): 33.0 n-fold
Synergism with the NO donor DEA/NO on sGC stimulation ([2]; combination with DEA/NO): no synergistic effect
Compound: O=C(O)c1ccc(CCC(/C=C/c2ccccc2OCc2ccc(-c3ccc(C(F)(F)F)cc3)cc2)Cc2ccc(-c3noc(=O)[nH]3)cc2)cc1 (single isomer, unassigned) [Example 55, E-4-{3-[4-(5-Oxo-4,5-dihydro-[1,2,4]oxadiazol-3-yl)benzyl]-5-[2-(4′-trifluoromethylbiphenyl-4-ylmethoxy)phenyl]pent-4-enyl}benzoic acid]
